# Where two headings read alike, the source gives them in different places.
# Tests used:
# DU-145 cells = assay: MTT cytotoxicity assay, DU-145; settings: read-out: IC50 values, MTT cytotoxicity assay; DU-145, 48 h
# [1] = test system: ex vivo AML patient blasts; assay: Cell cycle and apoptosis in ex vivo AML patient blasts; type: cell-based, human; settings: for cell cycle arrest and apoptosis (caspase 3 activation): 4 ex vivo cultures, AML patients #102, #108, #109, #116
# Experimental: FIG. 4: a) Cell cycle analyses and apoptosis carried out in ex vivo samples from AML patients identified with numbers; b) Cell cycle analysis, apoptosis and histone H3 acetylation levels of #116 AML cells after 20 hrs is of the indicated treatments.
# (§1) Human leukemia cell line U937 was propagated in RPMI medium supplemented with 10% FBS (Foetal bovine serum; Hyclone) and antibiotics (100 U/mL penicillin, 100 μg/mL streptomycin and 250 ng/mL amphotericin-B). Cells were kept at the constant concentration of 200000 cells per milliliter of culture medium. For AML samples, bone marrow containing 80% to 90% leukemic blasts was purified over Ficoll. This study was approved by the Ethical Committee of the Second University of Naples.
# [2] = test system: HCT-116 colon carcinoma cells xenografted in immunoincompetent mice; settings: for Normalised tumour weight: mean of n = 10
# HCT-116 cells = assay: MTT cytotoxicity assay, HCT-116; settings: read-out: IC50 values, MTT cytotoxicity assay; HCT-116, 48 h
# A-375 cells = assay: MTT cytotoxicity assay, A-375; settings: read-out: IC50 values, MTT cytotoxicity assay; A-375, 48 h
# [3] = test system: U937 acute myeloid leukemia cell line; assay: Cell cycle analysis in U937 cells; type: cell-based, human
# Experimental: (§2) FIG. 1: a) Cell cycle analysis of U937 cells treated for 30 hrs with the indicated compounds used at 1 and 5 μM; b) Caspase 3 apoptotic assay of the indicated compounds after 24 hrs of treatment in the U937 cells; c) Tubulin acetylation and p21 expression levels at 6 and 16 hrs after treatment with the indicated compounds; total tubulin expression levels are used for equal loading; d) Histone H3 acetylation and K9 H3 methylation expression levels at 6 and 16 hrs after treatment with the indicated compounds; total tubulin expression levels are used for equal loading; e) K9, K14, K18 histone H3 acetylation expression levels at 6 and 16 hrs after treatment with the indicated compounds; total ERKs expression levels are used for equal loading; f) HDAC1 enzymatic assay: IP-HDAC1 is incubated with the indicated inhibitors for 24 Hrs; activity is measured as ^3H-acetyl release; g) HDAC4 enzymatic assay: IP-HDAC4 is incubated with the indicated inhibitors for 24 hrs; activity is measured as ^3H-acetyl release.
# (§3) FIG. 3: a) Cell cycle and apoptosis analysis carried out in U937 cells after 24 hrs with the indicated compounds; values are media of independent triplicates; b) CD11c expression analysis carried out in U937 cells with the indicated compounds; values are media of independent duplicates; c) Tubuline acetylation and p21 expression levels in U937 cells after 24 hrs with the indicated treatments; total ERKs expression levels are used for equal loading; d) acetylation of histone H3 under the conditions indicated in (c).
# as §1
# MS-275 (Schering A G) was dissolved in ethanol and used at 5×10^−6M; valproic acid (VPA; Sigma) was used at 1 mM. All other compounds described were dissolved in DMSO (Sigma-Aldrich) and used at 1 or 5 μM.
# 2.5×10^5 cells were collected and resuspended in 500 μL of a hypotonic buffer (0.1% Triton X-100, 0.1% sodium citrate, 50 μg/mL propidium iodide, RNAse A). Cells were incubated in the dark for 30 min. Samples were acquired on a FACS-Calibur flow cytometer using the Cell Quest software (Becton Dickinson) and analysed with standard procedures using the Cell Quest software (Becton Dickinson) and the ModFit LT version 3 Software (Verity). All the experiments were performed 3 times.
# p21WAF1/CIP1 = assay: p21 expression, Western blot in U937 cells; type: cell-based, human
# Experimental: as §2, §3
# For the determination of p21^WAF1/CIP1 and p16^INK4 100 μg of total protein extracts were separated on a 15% polyacrylammide gels and blotted. Western blots were shown for p21 (Transduction Laboratories, dilution 1:500), p16 (Santa Cruz) and total ERKs (Santa Cruz) were used to normalise for equal loading. For alpha-tubulin acetylation 25 μg of total protein extracts were separated on a 10% polyacrylamide gels and blotted. […]
# p16INK4a promoter = assay: Methylation specific PCR for the p16 gene; type: cell-based; settings: 24 hrs
# Experimental: FIG. 2: a) Methylation specific PCR for the RARβ gene after 16 and 24 hrs of treatment with the indicated compounds; b) Methylation specific PCR for the p16 gene after 24 hrs of the indicated treatments. Samples are representative of real duplicates; c) p16 expression levels in U937 cells after 24 hrs with the indicated treatments; d) DNMT enzymatic in vitro assay carried out with 1.5 and 50 μM of the indicated compounds;
# DNA extraction was performed as described below. Bisulfite treatment and PCR for the determination of p16 methylation was performed as described from the suppliers (Chemicon).
# [4] = Earlier tolerability tests in mice; type: in vivo; settings: 30 mg/kg
# Source text: There were 10 animals in each group.
# [5] = test system: prostate cancer cells (LnCap); assay: Anti-proliferative and apoptogenic action in prostate cancer cells; type: cell-based; settings: data not shown
# U937 cells = assay: Caspase 3 apoptotic assay in U937 cells; type: cell-based, human; settings: U937, 24 hrs
# Experimental: as §2
# [6] = test system: breast cancer cells (ZR75.1); assay: Anti-proliferative and apoptogenic action in breast cancer cells; type: cell-based; settings: data not shown
# HDAC4 = HDAC4 (Homo sapiens, UniProt P56524); assay: HDAC4 enzymatic assay (IP-HDAC4, 3H-acetyl release); type: biochemical; settings: IP-HDAC4 incubated with inhibitor 24 hrs
# Chain of HDAC4 (P56524 whole entry, species assumed): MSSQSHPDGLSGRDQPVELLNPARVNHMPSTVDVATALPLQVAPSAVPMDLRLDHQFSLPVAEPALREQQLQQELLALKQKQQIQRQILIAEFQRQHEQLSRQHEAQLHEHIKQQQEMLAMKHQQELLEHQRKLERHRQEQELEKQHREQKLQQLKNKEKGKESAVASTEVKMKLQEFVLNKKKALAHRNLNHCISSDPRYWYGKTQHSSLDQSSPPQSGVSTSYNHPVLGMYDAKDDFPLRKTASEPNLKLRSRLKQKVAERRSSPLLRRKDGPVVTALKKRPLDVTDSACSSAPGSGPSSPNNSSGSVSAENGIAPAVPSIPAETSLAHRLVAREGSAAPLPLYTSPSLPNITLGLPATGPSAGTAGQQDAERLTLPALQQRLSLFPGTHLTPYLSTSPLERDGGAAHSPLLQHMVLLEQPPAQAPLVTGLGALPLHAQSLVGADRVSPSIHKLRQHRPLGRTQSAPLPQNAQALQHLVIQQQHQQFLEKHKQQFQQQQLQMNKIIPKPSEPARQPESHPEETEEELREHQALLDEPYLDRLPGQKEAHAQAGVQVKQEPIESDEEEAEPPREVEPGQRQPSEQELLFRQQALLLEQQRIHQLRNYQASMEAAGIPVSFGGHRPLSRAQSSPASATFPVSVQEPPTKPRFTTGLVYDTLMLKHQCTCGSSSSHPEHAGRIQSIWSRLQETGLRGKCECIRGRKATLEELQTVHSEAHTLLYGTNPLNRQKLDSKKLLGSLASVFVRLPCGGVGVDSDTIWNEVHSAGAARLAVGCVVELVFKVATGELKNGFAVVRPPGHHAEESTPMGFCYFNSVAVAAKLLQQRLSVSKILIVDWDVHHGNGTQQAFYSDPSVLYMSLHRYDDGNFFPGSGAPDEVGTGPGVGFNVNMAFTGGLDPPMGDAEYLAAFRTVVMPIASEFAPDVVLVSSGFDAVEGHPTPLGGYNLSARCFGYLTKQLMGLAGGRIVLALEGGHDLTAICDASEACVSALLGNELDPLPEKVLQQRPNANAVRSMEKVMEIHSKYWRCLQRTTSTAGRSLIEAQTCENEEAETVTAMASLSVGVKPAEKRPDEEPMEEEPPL
# Chain of HDAC4 (O15379 whole entry partner, species assumed): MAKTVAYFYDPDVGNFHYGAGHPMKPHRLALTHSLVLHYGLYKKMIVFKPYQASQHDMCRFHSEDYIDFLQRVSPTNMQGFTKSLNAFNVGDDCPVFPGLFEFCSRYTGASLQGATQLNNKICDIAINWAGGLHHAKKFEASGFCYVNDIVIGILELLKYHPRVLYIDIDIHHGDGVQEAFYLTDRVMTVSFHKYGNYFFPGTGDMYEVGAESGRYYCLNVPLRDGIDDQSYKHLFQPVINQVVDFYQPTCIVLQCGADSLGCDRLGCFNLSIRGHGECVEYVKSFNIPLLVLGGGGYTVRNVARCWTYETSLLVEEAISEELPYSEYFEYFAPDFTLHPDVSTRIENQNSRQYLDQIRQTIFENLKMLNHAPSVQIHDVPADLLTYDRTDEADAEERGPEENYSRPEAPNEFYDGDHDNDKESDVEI
# Experimental: as §2
# HDAC = settings: cited from earlier work
# histone H3 = assay: Histone H3 acetylation and K9 H3 methylation levels in U937 cells; type: cell-based, human; settings: U937, 6 and 16 hrs
# Experimental: as §2
# For the determination of p21^WAF1/CIP1 and p16^INK4 100 μg of total protein extracts were separated on a 15% polyacrylammide gels and blotted. Western blots were shown for p21 (Transduction Laboratories, dilution 1:500), p16 (Santa Cruz) and total ERKs (Santa Cruz) were used to normalise for equal loading. For alpha-tubulin acetylation 25 μg of total protein extracts were separated on a 10% polyacrylamide gels and blotted. Western blots were shown for acetylated alpha-tubulin (Sigma, dilution 1:500) and total ERKs (Santa Cruz) or total tubulin (Sigma) were used to normalise for equal loading.
# [7] = test system: histone deacetylases (HDAC); settings: in vitro cell-free enzyme assay; read-out: IC50, inhibition of histone deacetylases (HDAC); cited from earlier work
# HDAC1 = HDAC1 (Homo sapiens, UniProt Q13547); assay: HDAC1 enzymatic assay (IP-HDAC1, 3H-acetyl release); type: biochemical; settings: IP-HDAC1 incubated with inhibitor 24 hrs
# Chain of HDAC1 (Q13547 whole entry, species assumed): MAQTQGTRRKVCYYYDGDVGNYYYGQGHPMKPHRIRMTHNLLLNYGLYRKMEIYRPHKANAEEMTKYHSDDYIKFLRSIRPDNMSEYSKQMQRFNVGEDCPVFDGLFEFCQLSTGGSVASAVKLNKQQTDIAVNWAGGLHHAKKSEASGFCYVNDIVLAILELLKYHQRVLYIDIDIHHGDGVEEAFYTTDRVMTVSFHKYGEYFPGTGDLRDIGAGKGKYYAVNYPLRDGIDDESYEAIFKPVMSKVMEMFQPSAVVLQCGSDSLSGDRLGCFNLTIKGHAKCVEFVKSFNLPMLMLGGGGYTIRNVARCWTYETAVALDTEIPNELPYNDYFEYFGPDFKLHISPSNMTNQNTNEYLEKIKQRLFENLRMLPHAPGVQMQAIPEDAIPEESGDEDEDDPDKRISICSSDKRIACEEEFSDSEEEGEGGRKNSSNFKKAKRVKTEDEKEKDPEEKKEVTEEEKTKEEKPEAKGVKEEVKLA
# Experimental: as §2
# HDAC6 = biological target: T1, HDAC6 (Homo sapiens, UniProt Q9UBN7); assay: Alpha tubulin acetylation in U937 cells (HDAC6 readout); type: cell-based; settings: U937, 6 and 16 hrs
# T1 construct: Tubuline acetylation and p21 expression levels in U937 cells after 24 hrs with the indicated treatments; endogenous in cells; host or cells: U937
# T1 sequence (Q9UBN7 whole entry): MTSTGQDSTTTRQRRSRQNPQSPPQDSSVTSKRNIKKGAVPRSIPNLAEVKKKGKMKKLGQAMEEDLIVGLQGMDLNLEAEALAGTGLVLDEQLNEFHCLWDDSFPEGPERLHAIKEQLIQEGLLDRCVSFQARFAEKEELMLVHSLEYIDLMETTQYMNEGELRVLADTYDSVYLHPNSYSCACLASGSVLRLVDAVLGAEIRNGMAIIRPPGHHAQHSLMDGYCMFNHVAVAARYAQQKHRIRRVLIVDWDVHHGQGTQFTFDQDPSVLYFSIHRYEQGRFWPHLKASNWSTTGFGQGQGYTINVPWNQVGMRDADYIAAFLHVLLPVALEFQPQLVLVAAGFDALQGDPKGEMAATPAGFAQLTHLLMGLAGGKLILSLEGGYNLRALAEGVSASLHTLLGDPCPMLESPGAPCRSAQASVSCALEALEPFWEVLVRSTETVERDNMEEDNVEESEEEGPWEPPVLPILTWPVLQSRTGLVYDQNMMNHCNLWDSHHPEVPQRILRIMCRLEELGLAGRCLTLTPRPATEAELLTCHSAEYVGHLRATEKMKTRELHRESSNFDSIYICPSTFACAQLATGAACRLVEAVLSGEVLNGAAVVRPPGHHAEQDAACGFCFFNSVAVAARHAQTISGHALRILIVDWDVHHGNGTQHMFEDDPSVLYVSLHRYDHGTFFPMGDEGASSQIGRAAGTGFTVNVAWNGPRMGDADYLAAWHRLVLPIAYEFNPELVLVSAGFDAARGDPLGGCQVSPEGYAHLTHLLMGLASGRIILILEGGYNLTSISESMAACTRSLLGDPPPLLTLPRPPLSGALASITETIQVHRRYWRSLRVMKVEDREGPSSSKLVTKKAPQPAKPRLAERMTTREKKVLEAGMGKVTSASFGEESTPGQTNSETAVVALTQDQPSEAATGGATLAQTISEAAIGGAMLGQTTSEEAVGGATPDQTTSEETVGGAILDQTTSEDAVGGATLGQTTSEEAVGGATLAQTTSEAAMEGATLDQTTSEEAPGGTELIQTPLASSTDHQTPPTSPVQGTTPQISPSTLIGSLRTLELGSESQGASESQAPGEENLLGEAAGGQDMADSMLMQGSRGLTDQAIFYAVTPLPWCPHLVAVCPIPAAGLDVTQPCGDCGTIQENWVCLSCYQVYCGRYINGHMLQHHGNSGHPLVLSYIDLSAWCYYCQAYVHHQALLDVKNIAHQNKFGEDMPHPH
# Experimental: as §2, with “release. […]” for “release.”
# [8] = day 1, 20 mg/kg i.p. every second day
# [9] = day 4, 20 mg/kg i.p. every second day
# [10] = day 12, 20 mg/kg i.p. every second day
# [11] = day 17, 20 mg/kg i.p. every second day
# [12] = day 22, 20 mg/kg i.p. every second day
molecule,measurement,setting,value
Nc1ccccc1NC(=O)c1ccc(CNC(=O)OCc2cccnc2)cc1 [MS-275],IC50,DU-145 cells,8200 ± 600 nM
same,cell cycle arrest and apoptosis (caspase 3 activation),[1],activities similar to UVI5008
same,Percent Growth Inhibition after 22 days,[2]; 20 mg/kg i.p. every second day,35 ± 12%
same,Normalised tumour weight,[2]; [8],100 ± 25 mg
same,Normalised tumour weight,[2]; [9],202.6 ± 81.5 mg
same,Normalised tumour weight,[2]; [10],746.65 ± 185 mg
same,Normalised tumour weight,[2]; [11],1360.61 ± 288 mg
same,Normalised tumour weight,[2]; [12],2423.09 ± 445.5 mg
same,IC50,HCT-116 cells,2300 ± 300 nM
same,IC50,A-375 cells,2400 ± 700 nM
CSCCNC(=O)/C(Cc1c[nH]c2ccc(Br)cc12)=N/O [UVI5020],"cell cycle arrest and apoptosis, relative to UVI5008 (FIG. 3a)","[3]; U937, 24 hrs",inactive at inducing apoptosis and G2M arrest but it induces a G1 arrest
same,p21WAF1/CIP1 induction (FIG. 3c),"p21WAF1/CIP1; U937, 24 hrs",enhanced expression
same,apoptotic activity,"[1]; 5 μM, two samples of patient blasts",only a weak induction of apoptosis
Nc1ncn([C@@H]2O[C@H](CO)[C@@H](O)[C@H]2O)c(=O)n1 [5-azacytidine],unmethylated p16INK4a promoter DNA (MSP),p16INK4a promoter,very similar to that seen with UVI5008
SAHA,mortality,[4],60%
same,tolerability,[4],not tolerable
same,cell cycle arrest and apoptosis (caspase 3 activation),[1],activities similar to UVI5008
same,Normalised tumour weight,[2]; [8],100 ± 24 mg
same,Normalised tumour weight,[2]; [9],166.69 ± 56.8 mg
same,Normalised tumour weight,[2]; [10],892.95 ± 267.6 mg
same,Normalised tumour weight,[2]; [11],1915.59 ± 409.5 mg
same,Normalised tumour weight,[2]; [12],2952.8 ± 636.4 mg
same,unmethylated p16INK4a promoter DNA (MSP),p16INK4a promoter,inactive
"O=C(NCCSSCCNC(=O)/C(Cc1ccc(O)c(Br)c1)=N/O)/C(Cc1ccc(O)c(Br)c1)=N/O [UVI5000, Psammaplin A]","cell cycle arrest, position of the block","[3]; U937, 30 hrs, 1 and 5 μM",arrests in the S and G2 phases
same,anti-proliferative and apoptogenic action,[5],confirmed
same,expression of p21WAF1/CIP1,"p21WAF1/CIP1; U937, 6 and 16 hrs",dramatically increased
same,apoptogenic effect (caspase 3),U937 cells,strongest apoptogenic effect
same,anti-proliferative and apoptogenic action,[6],confirmed
same,HDAC4 deacetylase activity inhibition,HDAC4,only moderate activity
same,concentration to inhibit HDAC in cell-based assay relative to enzyme-based assay,HDAC,1800 times
same,cell cycle arrest and apoptosis (caspase 3 activation),[1],induced cell cycle arrest and apoptosis
same,global histone H3 acetylation,histone H3,moderate time-dependent increase
same,IC50,[7],4.2 nM
same,unmethylated p16INK4a promoter DNA (MSP),p16INK4a promoter,displayed a similar activity
same,HDAC1 inhibition,HDAC1,only a weak inhibitor of HDAC1
same,inhibition of HDAC6 (alpha tubulin acetylation),HDAC6,inhibited the activity of HDAC6

# From patent US8338473B2, “Derivatives of psammaplin A, a method for their synthesis and their uses for the prevention or treatment of cancer” (Centre National de la Recherche Scientifique, priority 2007, dated 2012)
